Earlier results in article PMC12562379, “Facile Synthesis of N-vinylindoles via Knoevenagel Condensation: Molecular Features and Biological Activities” (International Journal of Molecular Sciences, 2025).

Design: method as in PMID 29925826
Settings: NH-acid; cited from earlier work

For c1ccc2[nH]nnc2c1 [1H-benzotriazole], the pKa is listed as 8.2.
